Test results reported in paper PMC12074795, “Synthesis and biological evaluation of esterified anti-inflammatory drugs with ethylene glycol linkers: cytotoxicity, anti-inflammatory and antioxidant properties” (Royal Society Open Science, 2025).
Like-named read-outs stand apart in the source and are kept apart here.

Assays:
[1] = ABTS radical cation scavenging (decolorization) test; type: biochemical; settings: 734 nm, 30 min
Procedure: (§1) The in vitro antioxidant ability of the compounds synthesized in this work was evaluated using three different assays, including (i) the ABTS radical cation reduction-decolorization test, which uses the technique of Khan et al. consisting of the reduction of the cation radical by an antioxidant through the discoloration measured by absorption at the wavelength of 734 nm; (ii) interaction with the stable free radical DPPH, based on Bassene’s method, in which the scavenging of DPPH radicals is carried out by a colorimetric method consisting of the reduction of the DPPH radical, determined by its absorption at a wavelength of 517 nm; and (iii) the FRAP test according to the protocol of Path Canada, based on the ability of a substance to reduce Fe^3+ ions to Fe^2+ ions, which, in the presence of 1,10-phenanthroline, form a red-orange complex whose optical density can be measured at 505 nm.
The modified technique by Khan et al. was used to scavenge ABTS^+• cation radicals through a discoloration test. In this test, potassium permanganate (KMnO4) or potassium persulphate (K2S2O8) reacts with ABTS to generate a blue-green ABTS^+• radical. Antioxidants reduce this radical, leading to a measurable colour change at 734 nm, proportional to the antioxidant concentration. The antioxidant capacity is assessed by comparing the intensity reduction of ABTS colour with that of a reference antioxidant, gallic acid. Stock and dilute solutions of synthetic compounds were prepared as detailed in §3.2.5.1. Diluted concentrations were (50, 25, 12.5, 6.25, 3.125, 1.5625 and 0.78125)/Mi in mM. The ABTS solution was obtained by mixing ABTS with K2S2O8, producing an intense blue colour. The ABTS^+• radical was generated by combining equal volumes of a 4.9 mM K2S2O8 solution and a 7 mM ABTS stock solution, stored in the dark at room temperature for 15 h before use. The 7 mM ABTS stock was then diluted 20 times with distilled water. A total of 25 µl of each dilution was added to wells along with 75 µl of 0.175 mM ABTS+ solution. After 30 min of incubation in the dark at room temperature, optical densities were measured at 734 nm. Negative controls contained the ABTS reagent without synthesized compounds, while positive controls used gallic acid at the same final concentrations as the compounds. Compounds were also tested alone to assess fluorescence. The reduction of ABTS results in a blue discoloration, with lower absorbance indicating higher antioxidant activity.
(§2) The percentages of scavenging or 50% reduction were calculated using gallic acid as a standard for 100% reduction. The concentration of radical scavengers needed to neutralize 50% of free radicals, referred to as SC50, was determined using GraphPad Prism 8.0.1 software (244).

[2] = tested on: nitric oxide production by macrophages activated with Saccharomyces cerevisiae; assay: Inhibition of nitric oxide production by stimulated macrophages (Griess); type: cell-based, mouse
Procedure: Second, the anti-inflammatory activity of these compounds at a maximum concentration of 0.22 mM was evaluated by assessing their ability to inhibit the synthesis of NO (figure 2).
Peritoneal macrophages were isolated from four eight-week-old, 25 g Wistar mice by intraperitoneal injection of 0.5 ml of 2% starch solution (inflammatory agent) to stimulate their production. Four days later, the animals were sacrificed, and 5 ml of phosphate buffered saline (PBS) buffer (0.1 M, pH 7.4) was injected into their peritoneal cavity with a syringe. After massage of the peritoneal cavity, the injected buffer was slowly aspirated through a small abdominal incision. The resulting solution containing macrophages was transferred to 15 ml Falcon tubes and kept in ice. The fluid obtained was then centrifuged (1620 g, 4°C and 10 min), and the supernatant was removed. The erythrocytes were removed by osmotic shock. The cells were suspended in 1 ml hypotonic 0.05 M NaCl solution for 1 min. Isotonicity was then restored by adding 1 ml of 0.25 M NaCl. The mixture was centrifuged (1620 g, 4°C and 10 min) and the resulting pellet was suspended in 2 ml of Dulbecco's modified eagle medium (DMEM) (containing 0.2% streptomycin and penicillin, 0.4 g l^−1 bovine serum albumin and 3.7 g l^−1 NaHCO3 in PBS and filtered with 0.22 µm Millipore filters).
In the 96-well plate, 150 µl of a cell suspension (10^4 cells per well) were distributed in different wells. In the test and positive control wells, 50 µl of Saccharomycces cerevisiae (250 µg ml^–1) was added to stimulate the production of pro-inflammatory cytokines. Meanwhile 50 µl of DMEM was added in the negative control wells. The microplate was incubated at 37°C (5% CO2) for 1 h, then 50 µl of solution of compounds or baicalin at different concentrations (0.241 × 10^–3, 2.23 × 10^–3, 22.4 × 10^–3, 220 × 10^–3 and 2410 × 10^–3 mM) were added to the test wells and 50 µl DMEM to the positive (cells activated with Saccharomyces cerevisiae) and negative (inactivated cells) control wells. After 3 h of incubation at 37°C (5% CO2), the cell supernatants were used for NO [41].
A total of 100 µl of the previously obtained cell supernatants were mixed with 100 µl of Griess reagent (1% sulphanylamide, 0.1% naphthyl ethylenediamine dihydrochloride in 2.5% v/v phosphoric acid). The mixture was incubated for 10 min at room temperature and the absorbance is read at 550 nm. The amount of nitrite was measured using the standard sodium […] curve. The percentage inhibition of nitric oxide synthesis was calculated using the following formula:
%inhibition=[(ODcontrol−ODassay/ODcontrol]×100).

[3] = Ferric reducing antioxidant power (FRAP) test; type: biochemical; settings: 505 nm
Procedure: as §1
The Fe^3+ reduction test followed Path Canada’s protocol with some modifications, assessing the reduction of Fe^3+ ions to Fe^2+ ions, which form a red-orange complex with 1,10-phenanthroline, measurable at 505 nm. The colour intensity correlates with the amount of Fe^3+ reduced. Four solutions were prepared: 1.2 mg ml^−1 of Fe^3+ solution (1.2 mg FeCl3 in 1 ml distilled H2O), 0.2% ortho-phenanthroline solution (200 mg powder in 100 ml ethanol), 2 mg ml^−1 of gallic acid solution (2 mg gallic acid in 1 ml distilled H2O) as a positive control, stock and dilute solutions of the synthesized compounds (see §3.2.5.1). In a 96-well microplate, 180 µl distilled H2O was added to the first column and 100 µl to others for dilution. Each compound solution (20 µl at 10 mg ml^−1) was mixed with 25 µl Fe^3+ solution and incubated for 15 min in the dark at room temperature. Afterwards, 50 µl ortho-phenanthroline solution was added, followed by another 15 min incubation. Optical density was measured at 505 nm using a TECAN M200 plate reader. The positive control was treated similarly to the DPPH and ABTS assays.
as §2

[4] = first replicate, read-out: ABTS SC50(1)
[5] = mean of duplicate, read-out: ABTS mean SC50
[6] = second replicate, read-out: ABTS SC50(2)
[7] = Mus musculus, Macrophage, 3 h, peritoneal macrophages activated with Saccharomyces cerevisiae, 3 h incubation, Griess reagent, read-out: IC50 of NO inhibition assay
[8] = first replicate, read-out: FRAP SC50(1)
[9] = mean of duplicate, read-out: FRAP mean SC50
[10] = second replicate, read-out: FRAP SC50(2)
[11] = Mus musculus, Macrophage, classified according to the IC50 values of table 1, read-out: anti-inflammatory activity (class by IC50 of NO inhibition)
[12] = peritoneal macrophages activated with Saccharomyces cerevisiae, 3 h incubation, Griess reagent, read-out: IC50 of NO inhibition assay

Row | SMILES | EC50 [1, 4] [mM] | EC50 [1, 5] [mM] | EC50 [1, 6] [mM] | IC50 [2, 7] [mM] | EC50 [3, 8] [mM] | EC50 [3, 9] [mM] | EC50 [3, 10] [mM] | IC50 [2, 11] [mM] | IC50 [2, 12] [mM]
1 | O=C(/C=C/c1ccccc1)OCCOC(=O)c1ccccc1O [Compound 12, (E)-2-(cinnamoyloxy)ethyl 2-hydroxybenzoate] | 3.36 | 3.47 | 3.6 | 0.17 | 6.21 | 6.21 | 6.22 | – | –
2 | CC(C)Cc1ccc(C(C)C(=O)O)cc1 (stereo not drawn) [Compound 1, ibuprofen, reference compound] | 0.21 | 0.2 | 0.2 | 0.33 | 12.9 | 13 | 13.2 | – | –
3 | O=C(OCCOC(=O)c1ccccc1O)c1ccccc1O [Compound 13, Ethane-1,2-diyl bis(2-hydroxybenzoate)] | 0.21 | 0.2 | 0.2 | 0.9 | 6.73 | 6.69 | 6.66 | – | –
4 | CC(C)Cc1ccc(C(=O)OCCOC(=O)C(C)c2ccc(CC(C)C)cc2)cc1 (stereo not drawn) [Compound 2, 2-((2-(4-isobutylphenyl)propanoyl)oxy)ethyl 4-isobutylbenzoate] | 1.67 | 1.7 | 1.73 | 0.57 | 6.79 | 6.79 | 6.79 | < 1 | –
5 | O=C(OCCO)c1ccccc1O [Compound 7, 2-hydroxyethyl 2-hydroxybenzoate] | 0.21 | 0.21 | 0.21 | 0.05 | 11 | 10.9 | 10.9 | – | –

The remaining compounds from weak to strong by EC50 [1, 4], led by results:

Row | EC50 [1, 4] [mM] | EC50 [1, 5] [mM] | EC50 [1, 6] [mM] | IC50 [2, 7] [mM] | EC50 [3, 8] [mM] | EC50 [3, 9] [mM] | EC50 [3, 10] [mM] | IC50 [2, 11] [mM] | IC50 [2, 12] [mM] | SMILES
6 | 5.83 | 5.91 | 5.98 | 0.34 | 13.8 | 13.7 | 13.6 | – | – | O=C(O)/C=C/c1ccccc1 [Compound 11, cinnamic acid, reference compound]
7 | 3.7 | 3.9 | 4.11 | – | 7.58 | 7.48 | 7.39 | < 1 | – | CC(C)Cc1ccc(C(C)C(=O)OCCO)cc1 (stereo not drawn) [Compound 3, 2-hydroxyethyl 2-(4-isobutylphenyl)propanoate]
8 | 3.24 | 3.25 | 3.3 | > 1 | 8.06 | 8.03 | 8 | – | 1.36 | CCCCCCCCCCCC(=O)OCCOC(=O)c1ccccc1O [DEW4a]
9 | 2.77 | 2.79 | 2.81 | ≤ 0.05 | 4.66 | 4.67 | 4.67 | < 1 | 0.05 | CCCCCCCCCCCC(=O)OCCOC(=O)C(C)c1ccc(CC(C)C)cc1 (stereo not drawn) [Compound 5a, 2-((2-(4-isobutylphenyl)propanoyl)oxy)ethyl dodecanoate]
10 | 0.18 | 0.18 | 0.18 | ≤ 0.05 | 7.68 | – | 7.27 | < 1 | 0.05 | CC(C)Cc1ccc(C(C)C(=O)OCCOC(=O)C=Cc2ccccc2)cc1 (stereo not drawn) [Compound 14, 2-((2-(4-isobutylphenyl)propanoyl)oxy)ethyl cinnamate]
